From ChEMBL document CHEMBL1133093, “The PPARs: from orphan receptors to drug discovery” (J Med Chem, 2000)

Tests used:
[1] = biological target: T1, Peroxisome proliferator-activated receptor alpha (Mus musculus, UniProt P23204); assay: Agonist activity for murine PPAR alpha receptor in transcriptional activation assay;IA means inactive at 10 uM; assay type: functional
T1 sequence (P23204 whole entry): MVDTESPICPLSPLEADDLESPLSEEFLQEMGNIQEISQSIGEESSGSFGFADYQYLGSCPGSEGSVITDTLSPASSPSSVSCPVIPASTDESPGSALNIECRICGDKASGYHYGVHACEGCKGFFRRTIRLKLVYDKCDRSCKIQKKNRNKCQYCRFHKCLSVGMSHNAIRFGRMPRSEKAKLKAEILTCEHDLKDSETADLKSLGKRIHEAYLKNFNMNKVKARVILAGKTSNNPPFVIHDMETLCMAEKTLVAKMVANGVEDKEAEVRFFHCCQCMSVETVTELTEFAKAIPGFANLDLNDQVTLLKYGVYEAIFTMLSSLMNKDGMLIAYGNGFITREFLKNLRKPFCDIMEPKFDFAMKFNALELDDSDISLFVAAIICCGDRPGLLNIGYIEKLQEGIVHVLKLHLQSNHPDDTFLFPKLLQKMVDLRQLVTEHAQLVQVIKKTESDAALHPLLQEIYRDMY

[2] = biological target: T2, Peroxisome proliferator-activated receptor delta (Mus musculus, UniProt P35396); assay: Agonist activity for murine PPAR delta receptor in transcriptional activation assay; assay type: functional
T2 sequence (P35396 whole entry): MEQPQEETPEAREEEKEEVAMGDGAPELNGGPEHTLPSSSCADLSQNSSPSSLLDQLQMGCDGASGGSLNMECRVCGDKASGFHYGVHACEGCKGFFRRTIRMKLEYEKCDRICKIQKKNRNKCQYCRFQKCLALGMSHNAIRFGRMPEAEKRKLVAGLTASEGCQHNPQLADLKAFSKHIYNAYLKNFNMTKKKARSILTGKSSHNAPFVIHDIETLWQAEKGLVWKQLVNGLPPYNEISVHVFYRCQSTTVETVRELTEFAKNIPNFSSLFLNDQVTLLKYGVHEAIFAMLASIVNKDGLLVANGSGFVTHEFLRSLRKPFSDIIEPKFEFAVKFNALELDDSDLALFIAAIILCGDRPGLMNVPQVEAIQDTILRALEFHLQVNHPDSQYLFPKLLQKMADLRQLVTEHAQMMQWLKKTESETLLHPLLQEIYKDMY

[3] = biological target: T3, Peroxisome proliferator-activated receptor alpha (Homo sapiens, UniProt Q07869)
T3 sequence (Q07869 whole entry): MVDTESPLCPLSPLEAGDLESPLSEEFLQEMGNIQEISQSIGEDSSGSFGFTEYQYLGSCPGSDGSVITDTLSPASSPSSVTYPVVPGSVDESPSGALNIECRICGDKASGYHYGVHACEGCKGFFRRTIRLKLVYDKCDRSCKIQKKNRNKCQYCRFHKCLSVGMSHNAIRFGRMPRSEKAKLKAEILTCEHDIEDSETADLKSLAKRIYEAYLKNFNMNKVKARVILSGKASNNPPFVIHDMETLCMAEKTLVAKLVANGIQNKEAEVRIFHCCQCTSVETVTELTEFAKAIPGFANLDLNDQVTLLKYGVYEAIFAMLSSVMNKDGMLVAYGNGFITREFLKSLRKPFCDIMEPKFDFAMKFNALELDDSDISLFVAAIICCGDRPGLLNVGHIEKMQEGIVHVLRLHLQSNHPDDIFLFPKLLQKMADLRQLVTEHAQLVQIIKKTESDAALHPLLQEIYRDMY

[4] = biological target: T4, Peroxisome proliferator-activated receptor gamma (Homo sapiens, UniProt P37231)
T4 sequence (P37231 whole entry): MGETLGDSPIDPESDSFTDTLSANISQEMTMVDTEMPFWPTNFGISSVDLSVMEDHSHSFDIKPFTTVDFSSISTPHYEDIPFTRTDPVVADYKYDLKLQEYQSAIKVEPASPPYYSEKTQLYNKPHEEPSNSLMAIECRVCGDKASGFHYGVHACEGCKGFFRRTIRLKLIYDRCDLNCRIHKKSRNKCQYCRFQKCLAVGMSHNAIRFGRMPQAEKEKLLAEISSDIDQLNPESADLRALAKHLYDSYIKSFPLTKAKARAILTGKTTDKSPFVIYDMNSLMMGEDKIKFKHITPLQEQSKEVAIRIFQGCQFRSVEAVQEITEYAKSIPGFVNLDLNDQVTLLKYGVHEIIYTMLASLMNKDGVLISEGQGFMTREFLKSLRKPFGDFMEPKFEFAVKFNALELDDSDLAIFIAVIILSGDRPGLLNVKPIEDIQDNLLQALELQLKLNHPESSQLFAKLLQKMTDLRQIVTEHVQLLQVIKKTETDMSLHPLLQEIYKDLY

[5] = biological target: T5, Peroxisome proliferator-activated receptor gamma (Mus musculus, UniProt P37238)
T5 sequence (P37238 whole entry): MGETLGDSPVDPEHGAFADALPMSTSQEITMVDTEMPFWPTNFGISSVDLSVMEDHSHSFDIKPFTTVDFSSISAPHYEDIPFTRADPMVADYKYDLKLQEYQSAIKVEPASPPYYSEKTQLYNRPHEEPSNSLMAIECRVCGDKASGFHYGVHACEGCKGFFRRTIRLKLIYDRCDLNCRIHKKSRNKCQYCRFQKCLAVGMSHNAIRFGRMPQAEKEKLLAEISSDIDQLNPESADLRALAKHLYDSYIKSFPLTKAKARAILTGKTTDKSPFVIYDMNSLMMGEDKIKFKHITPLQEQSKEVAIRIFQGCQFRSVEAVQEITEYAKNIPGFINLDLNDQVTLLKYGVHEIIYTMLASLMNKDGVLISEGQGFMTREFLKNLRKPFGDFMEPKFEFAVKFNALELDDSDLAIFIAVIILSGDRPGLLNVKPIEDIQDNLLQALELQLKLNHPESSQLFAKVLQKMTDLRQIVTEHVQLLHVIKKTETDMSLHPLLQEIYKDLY
Description: Agonist activity for murine PPAR gamma receptor in transcriptional activation assay

[6] = biological target: T6, Peroxisome proliferator-activated receptor delta (Homo sapiens, UniProt Q03181)
T6 sequence (Q03181 whole entry): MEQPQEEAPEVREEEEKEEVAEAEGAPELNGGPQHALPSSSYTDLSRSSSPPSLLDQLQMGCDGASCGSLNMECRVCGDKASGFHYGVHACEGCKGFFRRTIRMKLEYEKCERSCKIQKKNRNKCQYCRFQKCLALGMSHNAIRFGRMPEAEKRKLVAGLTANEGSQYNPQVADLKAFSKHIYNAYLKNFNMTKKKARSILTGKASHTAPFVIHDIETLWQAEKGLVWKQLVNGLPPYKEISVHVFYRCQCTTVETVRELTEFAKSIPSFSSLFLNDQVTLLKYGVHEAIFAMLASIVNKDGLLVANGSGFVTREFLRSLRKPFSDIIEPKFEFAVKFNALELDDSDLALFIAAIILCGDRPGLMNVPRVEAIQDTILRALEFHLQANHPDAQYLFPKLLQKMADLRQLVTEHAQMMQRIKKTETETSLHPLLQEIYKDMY

[7] = biological target: T1, Peroxisome proliferator-activated receptor alpha; assay type: functional
[8] = biological target: T3, Peroxisome proliferator-activated receptor alpha; assay: Agonist activity for Human PPAR alpha receptor in transcriptional activation assay; IA means inactive at 10 uM; assay type: functional
[9] = biological target: T6, Peroxisome proliferator-activated receptor delta; assay: Agonist activity for Human PPAR delta receptor in transcriptional activation assay; IA means inactive at 10 uM; assay type: functional
[10] = biological target: T1, Peroxisome proliferator-activated receptor alpha; assay: Agonist activity for murine PPAR alpha receptor in transcriptional activation assay; IA means inactive at 10 uM; assay type: functional
[11] = biological target: T2, Peroxisome proliferator-activated receptor delta; assay: Agonist activity for murine PPAR delta receptor in transcriptional activation assay; IA means inactive at 10 uM; assay type: functional
[12] = biological target: T3, Peroxisome proliferator-activated receptor alpha; assay: Agonist activity for Human PPAR alpha receptor in transcriptional activation assay;IA means inactive at 10 uM; assay type: functional
[13] = biological target: T6, Peroxisome proliferator-activated receptor delta; remark: listed apart in the source
Description: Agonist activity for Human PPAR delta receptor in transcriptional activation assay;IA means inactive at 10 uM

[14] = biological target: T2, Peroxisome proliferator-activated receptor delta
Description: Agonist activity for murine PPAR delta receptor in transcriptional activation assay;IA means inactive at 10 uM

[15] = biological target: T4, Peroxisome proliferator-activated receptor gamma; assay: Agonist activity for Human PPAR gamma receptor in transcriptional activation assay; assay type: functional
[16] = biological target: T6, Peroxisome proliferator-activated receptor delta; assay: Agonist activity for Human PPAR delta receptor in transcriptional activation assay at 100 uM; IA means inactive; assay type: functional
[17] = biological target: T2, Peroxisome proliferator-activated receptor delta; remark: listed apart in the source
Description: Agonist activity for murine PPAR delta receptor in transcriptional activation assay at 100 uM; IA means inactive

[18] = biological target: T3, Peroxisome proliferator-activated receptor alpha; remark: listed apart in the source
[19] = biological target: T6, Peroxisome proliferator-activated receptor delta; remark: listed apart in the source
[20] = biological target: T2, Peroxisome proliferator-activated receptor delta; remark: listed apart in the source

## CCCc1c(OCCCOc2ccc(OCC(=O)O)cc2)ccc(C(C)=O)c1O
[1]
  EC50: Not Active
[2]
  EC50: 3800 nM
[3]
  EC50: 10000 nM
[4]
  EC50: 5500 nM
[5]
  EC50: 10000 nM
[6]
  EC50: 530 nM

## COc1ccc(CC2SC(=O)NC2=O)cc1C(=O)NCc1ccc(C(F)(F)F)cc1 (centres undefined)
[7]
  EC50: 10000 nM
[2]
  EC50: 7200 nM
[6]
  EC50: 9100 nM

## CCOC(Cc1ccc(OCCN(C)c2nc3ccccc3o2)cc1)C(=O)O (centres undefined)
[7]
  EC50: 930 nM
[3]
  EC50: 740 nM

## COc1ccc(CCc2c(-c3ccccc3)[nH]c3ccc(CC(=O)O)cc23)cc1
[8]
  EC50: Not Active
[9]
  EC50: Not Active
[10]
  EC50: Not Active
[11]
  EC50: Not Active
[5]
  EC50: 140 nM

## CN(CCOc1ccc(C[C@H](Nc2ccccc2C(=O)c2ccccc2)C(=O)O)cc1)c1ccccn1
[12]
  EC50: Not Active
[1]
  EC50: Not Active
[5]
  EC50: 13 nM
[13]
  EC50: Not Active
[14]
  EC50: Not Active

## CC(C)(Oc1ccc(CCCN(CCc2c(F)cccc2Cl)C(=O)Nc2cccc(Cl)c2Cl)cc1)C(=O)O
[7]
  EC50: 270 nM
[2]
  EC50: 410 nM
[3]
  EC50: 170 nM
[4]
  EC50: 2500 nM
[5]
  EC50: 1500 nM

## CCOC(=O)C(C)(C)Oc1ccc(Cl)cc1 [CLOFIBRATE]
[15]
  EC50: 500000 nM
[16]
  EC50: Not Active
[7]
  EC50: 50000 nM
[3]
  EC50: 55000 nM
[17]
  EC50: Not Active

## Cc1oc(-c2ccccc2)nc1CCOc1ccc(C[C@H](Nc2ccccc2C(=O)c2ccccc2)C(=O)O)cc1 [FARGLITAZAR]
[1]
  EC50: Not Active
[13]
  EC50: Not Active
[14]
  EC50: Not Active

## CC(C)OC(=O)C(C)(C)Oc1ccc(C(=O)c2ccc(Cl)cc2)cc1 [FENOFIBRATE]
[16]
  EC50: Not Active
[17]
  EC50: Not Active

## COC(=O)c1ccccc1N[C@@H](Cc1ccc(OCCc2nc(-c3ccccc3)oc2C)cc1)C(=O)O [GW7845]
[1]
  EC50: Not Active
[13]
  EC50: Not Active
[14]
  EC50: Not Active

## CCCc1c(OCCCSc2ccc(CC(=O)O)cc2Cl)ccc2c(-c3ccccc3)coc12 [L-796449]
[7]
  EC50: 7600 nM
[2]
  EC50: 23 nM
[3]
  EC50: 4.1 nM
[5]
  EC50: 10 nM

## CCc1ccc(CCOc2ccc(CC3SC(=O)NC3=O)cc2)nc1 (centres undefined) [PIOGLITAZONE]
[10]
  EC50: Not Active
[18]
  EC50: Not Active
[19]
  EC50: Not Active
[20]
  EC50: Not Active

## Cc1cccc(Nc2cc(Cl)nc(SCC(=O)O)n2)c1C [PIRINIXIC ACID]
[5]
  EC50: 32000 nM

## Cc1oc(-c2ccccc2)nc1CCOc1ccc(CC2C(=O)NOC2=O)cc1 (centres undefined) [REGLITAZAR]
[7]
  EC50: 4300 nM
[3]
  EC50: 1900 nM
[5]
  EC50: 89 nM
[13]
  EC50: Not Active
[14]
  EC50: Not Active

## CN(CCOc1ccc(CC2SC(=O)NC2=O)cc1)c1ccccn1 (centres undefined) [ROSIGLITAZONE]
[10]
  EC50: Not Active
[18]
  EC50: Not Active

## Cc1c(C)c2c(c(C)c1O)CCC(C)(COc1ccc(CC3SC(=O)NC3=O)cc1)O2 (centres undefined) [TROGLITAZONE]
[10]
  EC50: Not Active
[18]
  EC50: Not Active
[19]
  EC50: Not Active
[20]
  EC50: Not Active
